Each structure is given as a SMILES string.

The target in this assay is Prothrombin (Homo sapiens) (UniProt P00734). Nature of the assay: Relative prothrombin time was determined as the activity of the test ODN (oligodeoxynucleotide) relative to that of GS-522.
The compound `Cc1cn([C@H]2C[C@H](OCOC[C@H]3O[C@@H](n4cnc5c(=O)nc(N)[nH]c54)C[C@@H]3OP(=O)(O)OC[C@H]3O[C@@H](n4cnc5c(=O)[nH]c(=N)[nH]c54)C[C@@H]3OP(=O)(O)OC[C@H]3O[C@@H](n4cc(C)c(=O)[nH]c4=O)C[C@@H]3OCOC[C@H]3O[C@@H](n4cc(C)c(=O)[nH]c4=O)C[C@@H]3OP(=O)(O)OC[C@H]3O[C@@H](n4cnc5c(=O)[nH]c(=N)[nH]c54)C[C@@H]3OP(=O)(O)OC[C@H]3O[C@@H](n4cnc5c(=O)nc(N)[nH]c54)C[C@@H]3O)[C@@H](COP(=O)(O)O[C@H]3C[C@H](n4cnc5c(O)nc(=N)[nH]c54)O[C@@H]3COP(=O)(O)O[C@H]3C[C@H](n4cc(C)c(=O)[nH]c4=O)O[C@@H]3COP(=O)(O)O[C@H]3C[C@H](n4cnc5c(=O)[nH]c(=N)[nH]c54)O[C@@H]3COP(=O)(O)O[C@H]3C[C@H](n4cnc5c(=O)nc(N)[nH]c54)O[C@@H]3COP(=O)(O)O[C@H]3C[C@H](n4cc(C)c(=O)[nH]c4=O)O[C@@H]3COCO[C@H]3C[C@H](n4cc(C)c(=O)[nH]c4=O)O[C@@H]3COP(=O)(O)O[C@H]3C[C@H](n4cnc5c(=O)nc(N)[nH]c54)O[C@@H]3COP(=O)(O)O[C@H]3C[C@H](n4cnc5c(=O)[nH]c(=N)[nH]c54)O[C@@H]3COP(=O)(O)O)O2)c(=O)[nH]c1=O` yielded a Relative PT of 1.1.
On to `Cc1cn([C@H]2C[C@H](OCOC[C@H]3O[C@@H](n4cnc5c(=O)nc(N)[nH]c54)C[C@@H]3OP(=O)(O)OC[C@H]3O[C@@H](n4cnc5c(=O)[nH]c(=N)[nH]c54)C[C@@H]3OP(=O)(O)OC[C@H]3O[C@@H](n4cc(C)c(=O)[nH]c4=O)C[C@@H]3OCOC[C@H]3O[C@@H](n4cc(C)c(=O)[nH]c4=O)C[C@@H]3OP(=O)(O)OC[C@H]3O[C@@H](n4cnc5c(=O)[nH]c(=N)[nH]c54)C[C@@H]3OP(=O)(O)OC[C@H]3O[C@@H](n4cnc5c(=O)nc(N)[nH]c54)C[C@@H]3O)[C@@H](COP(=O)(O)O[C@H]3C[C@H](n4cnc5c(=O)nc(N)[nH]c54)O[C@@H]3COCO[C@H]3C[C@H](n4cc(C)c(=O)[nH]c4=O)O[C@@H]3COP(=O)(O)O[C@H]3C[C@H](n4cnc5c(=O)[nH]c(=N)[nH]c54)O[C@@H]3COP(=O)(O)O[C@H]3C[C@H](n4cnc5c(=O)nc(N)[nH]c54)O[C@@H]3COP(=O)(O)O[C@H]3C[C@H](n4cc(C)c(=O)[nH]c4=O)O[C@@H]3COCO[C@H]3C[C@H](n4cc(C)c(=O)[nH]c4=O)O[C@@H]3COP(=O)(O)O[C@H]3C[C@H](n4cnc5c(=O)[nH]c(=N)[nH]c54)O[C@@H]3COP(=O)(O)O[C@H]3C[C@H](n4cnc5c(=O)nc(N)[nH]c54)O[C@@H]3COP(=O)(O)O)O2)c(=O)[nH]c1=O`, for which the Relative PT came out at 0.5.
The figure for `Cc1cn([C@H]2C[C@H](OCOC[C@H]3O[C@@H](n4cc(C)c(=O)[nH]c4=O)C[C@@H]3OP(=O)(O)OC[C@H]3O[C@@H](n4cnc5c(=O)nc(N)[nH]c54)C[C@@H]3OP(=O)(O)OC[C@H]3O[C@@H](n4cnc5c(=O)[nH]c(=N)[nH]c54)C[C@@H]3OCOC[C@H]3O[C@@H](n4cc(C)c(=O)[nH]c4=O)C[C@@H]3OP(=O)(O)OC[C@H]3O[C@@H](n4cnc5c(=O)nc(N)[nH]c54)C[C@@H]3OCOC[C@H]3O[C@@H](n4cc(C)c(=O)[nH]c4=O)C[C@@H]3OP(=O)(O)OC[C@H]3O[C@@H](n4cnc5c(=O)nc(N)[nH]c54)C[C@@H]3OP(=O)(O)OC[C@H]3O[C@@H](n4cnc5c(=O)[nH]c(=N)[nH]c54)C[C@@H]3OP(=O)(O)OC[C@H]3O[C@@H](n4cc(C)c(=O)[nH]c4=O)C[C@@H]3OCOC[C@H]3O[C@@H](n4cc(C)c(=O)[nH]c4=O)C[C@@H]3OP(=O)(O)OC[C@H]3O[C@@H](n4cnc5c(=O)[nH]c(=N)[nH]c54)C[C@@H]3OP(=O)(O)OC[C@H]3O[C@@H](n4cnc5c(=O)nc(N)[nH]c54)C[C@@H]3O)[C@@H](COP(=O)(O)O[C@H]3C[C@H](n4cnc5c(=O)[nH]c(=N)[nH]c54)O[C@@H]3COP(=O)(O)O[C@H]3C[C@H](n4cnc5c(=O)nc(N)[nH]c54)O[C@@H]3COP(=O)(O)O)O2)c(=O)[nH]c1=O` is 0.8.
Consider `Cc1cn([C@H]2C[C@H](OP(=O)(O)OC[C@H]3O[C@@H](n4cnc5c(=O)nc(N)[nH]c54)C[C@@H]3OCOC[C@H]3O[C@@H](n4cnc5c(=O)[nH]c(=N)[nH]c54)C[C@@H]3OP(=O)(O)OC[C@H]3O[C@@H](n4cc(C)c(=O)[nH]c4=O)C[C@@H]3OP(=O)(O)OC[C@H]3O[C@@H](n4cnc5c(=O)nc(N)[nH]c54)C[C@@H]3OP(=O)(O)OC[C@H]3O[C@@H](n4cc(C)c(=O)[nH]c4=O)C[C@@H]3OP(=O)(O)OC[C@H]3O[C@@H](n4cnc5c(=O)nc(N)[nH]c54)C[C@@H]3OP(=O)(O)OC[C@H]3O[C@@H](n4cnc5c(=O)[nH]c(=N)[nH]c54)C[C@@H]3OP(=O)(O)OC[C@H]3O[C@@H](n4cc(C)c(=O)[nH]c4=O)C[C@@H]3OP(=O)(O)OC[C@H]3O[C@@H](n4cc(C)c(=O)[nH]c4=O)C[C@@H]3OP(=O)(O)OC[C@H]3O[C@@H](n4cnc5c(=O)[nH]c(=N)[nH]c54)C[C@@H]3OP(=O)(O)OC[C@H]3O[C@@H](n4cnc5c(=O)nc(N)[nH]c54)C[C@@H]3O)[C@@H](COP(=O)(O)O[C@H]3C[C@H](n4cc(C)c(=O)[nH]c4=O)O[C@@H]3COP(=O)(O)O[C@H]3C[C@H](n4cnc5c(=O)[nH]c(=N)[nH]c54)O[C@@H]3COP(=O)(O)O[C@H]3C[C@H](n4cnc5c(=O)nc(N)[nH]c54)O[C@@H]3COP(=O)(O)O)O2)c(=O)[nH]c1=O`, for which the Relative PT was 0.8.
`Cc1cn([C@H]2C[C@H](OP(=O)(O)OC[C@H]3O[C@@H](n4cnc5c(=O)nc(N)[nH]c54)C[C@@H]3OP(=O)(O)OC[C@H]3O[C@@H](n4cnc5c(=O)[nH]c(=N)[nH]c54)C[C@@H]3OP(=O)(O)OC[C@H]3O[C@@H](n4cc(C)c(=O)[nH]c4=O)C[C@@H]3OP(=O)(O)OC[C@H]3O[C@@H](n4cnc5c(=O)[nH]c(=N)[nH]c54)C[C@@H]3OP(=O)(O)OC[C@H]3O[C@@H](n4cc(C)c(=O)[nH]c4=O)C[C@@H]3OP(=O)(O)OC[C@H]3O[C@@H](n4cnc5c(=O)nc(N)[nH]c54)C[C@@H]3OP(=O)(O)OC[C@H]3O[C@@H](n4cnc5c(=O)[nH]c(=N)[nH]c54)C[C@@H]3OP(=O)(O)OC[C@H]3O[C@@H](n4cc(C)c(=O)[nH]c4=O)C[C@@H]3OP(=O)(O)OC[C@H]3O[C@@H](n4cc(C)c(=O)[nH]c4=O)C[C@@H]3OP(=O)(O)OC[C@H]3O[C@@H](n4cnc5c(=O)[nH]c(=N)[nH]c54)C[C@@H]3OCOC[C@H]3O[C@@H](n4cnc5c(=O)nc(N)[nH]c54)C[C@@H]3O)[C@@H](COP(=O)(O)O[C@H]3C[C@H](n4cc(C)c(=O)[nH]c4=O)O[C@@H]3COP(=O)(O)O[C@H]3C[C@H](n4cnc5c(=O)nc(N)[nH]c54)O[C@@H]3COCO[C@H]3C[C@H](n4cnc5c(=O)[nH]c(=N)[nH]c54)O[C@@H]3COP(=O)(O)O)O2)c(=O)[nH]c1=O`: the Relative PT was determined as 0.7.
